According to patent US9586986B2, “Substituted 7-deazapurine ribonucleosides for therapeutic uses” (Institute of Organic Chemistry and Biochemistry ASCR, v.v.i., priority 2014, dated 2017):

Tests used:
CCRF-CEM cells [1] = assay: Cell cycle and apoptosis analysis (flow cytometry, propidium iodide); format: cell-based, human; settings: for G1, % of total cell populations / G2/M, % of total cell populations / S, % of total cell populations / sub-G1 (apoptosis), % of total cell populations: CCRF-CEM cells treated at IC50 for 24 hrs
Method: After the incubation period, cells were then washed with cold 1×PBS and fixed in 70% ethanol added dropwise and stored overnight at −20° C. Afterwards, cells were washed in hypotonic citrate buffer, treated with RNase (50 μg/mL) and stained with propidium iodide. Flow cytometry using a 488 nm single-beam laser (Becton Dickinson) was used for measurement. The data were analyzed according to the program ModFitLT (Verity), and apoptosis was expressed as the percentage of cells with a propidium content lower than that in the G0/G1 population. Half of the sample was used for pH3^ser10 antibody (Sigma) labeling and subsequent flow cytometry analysis of mitotic cells.
(§1) However, the major mechanism of action was inhibition of RNA synthesis (BrU incorporation). […] Cell cycle alterations (G1, S, G2/M) were not observed in treated cells under specified experimental conditions.

A549 = assay: Cytostatic/cytotoxic MTT assay, A549; format: cell-based; settings: Homo sapiens, A549; 72 h incubation; read-out: MTT, IC50 A549
How it was run: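 Growth inhibition is measured by MTT metabolic staining after a 3-day compound treatment at 37 °C, 5% CO2. Formazan is dissolved overnight in 10% aqueous SDS, pH 5.5, and read at 540 nm.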

[2] = tested on: HCV subtype 1B replicon in Huh-7 cells; assay: HCV sub-genomic reporter replicon assay, subtype 1B; format: cell-based; settings: Hepatitis C virus; Huh-7 cells, HCV subtype 1B replicon; read-out: Replicon 1B EC50
Method: (§2) Compounds were also tested in Huh-7 cells harboring sub-genomic reporter replicons derived from HCV subtypes 1B and 2A (ref.: Stuyver, L. J.; Whitaker, T.; McBrayer, T. R.; Hernandez-Santiago, B. I.; Lostia, S.; Tharnish, P. M.; Ramesh, M.; Chu, C. K.; Jordan, R.; Shi, J. X.; Rachakonda, S.; Watanabe, K. A.; Otto, M. J.; Schinazi, R. F. Antimicrob. Agents Chemother. 2003, 47, 244-254).

CEM-DNR-bulk = assay: Cytostatic/cytotoxic MTT assay, CEM-DNR-bulk; format: cell-based; settings: Homo sapiens; daunorubicin resistant subline, 72 h; read-out: MTT, IC50 CEM-DNR-bulk
How it was run: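 Human cancer lines, including daunorubicin-resistant CEM-DNR (mrp-1/mdr-1 overexpressing) and paclitaxel-resistant K562-TAX (mdr-1), seeded 25,000-30,000 cells/well, pre-incubated 24 h, then treated in duplicate with four-fold dilutions for 72 h at 37° C, 5% CO2. MTT read-out at 540 nm; IC50 from dose-response curves.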

CCRF-CEM cells [3] = assay: BrU incorporation analysis (RNA synthesis); format: cell-based, human; settings: CCRF-CEM cells treated at IC50 for 24 hrs
Method: Cells were cultured and treated as for cell cycle analysis. Before harvesting, they were pulse-labelled with 1 mM 5-bromouridine (BrU) for 30 min. The cells were fixed in 1% buffered paraformaldehyde with 0.05% of NP-40, incubated in room temperature for 15 min and than in the fridge overnight. They were then washed in 1% glycin in PBS, washed in PBS and stained with primary anti-BrdU antibody crossreacting to BrU (Exbio) for 30 min at room temperature in the dark. Cells were than washed with PBS and stained with secondary anti-mouse-FITC antibody (Sigma). Following the staining the cells are washed with PBS and fixed with 1% PBS buffered paraformaldehyde with 0.05% of NP-40. The cells were then washed with PBS, incubated with propidium iodide (0.1 mg/mL) and RNAse A (0.5 mg/mL) for 1 h at room temperature in the dark, and finally analyzed by flow cytometry using a 488 nm single-beam laser (FACSCalibur, Becton Dickinson).
as §1

[4] = tested on: HCV subtype 2A replicon in Huh-7 cells; assay: HCV sub-genomic reporter replicon assay, subtype 2A; format: cell-based; settings: Hepatitis C virus; Huh-7 cells, HCV subtype 2A replicon; read-out: Replicon 2A EC50
Method: as §2

SMILES | G1, % of total cell populations (CCRF-CEM cells [1]) | G2/M, % of total cell populations (CCRF-CEM cells [1]) | S, % of total cell populations (CCRF-CEM cells [1]) | sub-G1 (apoptosis), % of total cell populations (CCRF-CEM cells [1]) | IC50 (A549) | EC50 [2] | IC50 (CEM-DNR-bulk) | BrU+ (RNA synthesis), % of total cell populations (CCRF-CEM cells [3]) | EC50 [4] | melting point | apoptosis induction in words (CCRF-CEM cells [1]; CCRF-CEM, IC50, 24 hours)
COc1ncnc2c1c(-c1ccoc1)cn2[C@@H]1O[C@H](CO)[C@@H](O)[C@H]1O [Compound 1b, 5-(Furan-3-yl)-4-methoxy-7-(β-D-ribofuranosyl)-7H-pyrrolo[2,3-d]pyrimidine] | 43.5% | 12.3% | 44.2% | 8.5% | 1160 nM | 330 nM | > 20000 nM | 0.7% | 8280 nM | 190 to 192 °C | 
COc1ncnc2c1c(-c1ccsc1)cn2[C@@H]1O[C@H](CO)[C@@H](O)[C@H]1O [Compound 1d, 4-Methoxy-7-(β-D-ribofuranosyl)-5-(thiophen-3-yl)-7H-pyrrolo[2,3-d]pyrimidine] | 40.8% | 12.7% | 46.5% | 75% | 5170 nM | 550 nM | 7640 nM | 0.5% | > 44000 nM | 169 to 171 °C | major apoptosis
COc1ncnc2c1c(I)cn2[C@@H]1O[C@H](CO)[C@@H](O)[C@H]1O [Compound 1h, 5-iodo-4-methoxy-7-(β-D-ribofuranosyl)-7H-pyrrolo[2,3-d]pyrimidine, reference compound] | 37.9% | 12.9% | 49.2% | 6% | > 20000 nM | > 44000 nM | > 20000 nM | 0.2% | > 44000 nM |  | 
CSc1ncnc2c1c(-c1ccco1)cn2[C@@H]1O[C@H](CO)[C@@H](O)[C@H]1O [Compound 2a, 5-(Furan-2-yl)-4-methylsulfanyl-7-(β-D-ribofuranosyl)-7H-pyrrolo[2,3-d]pyrimidine] | 43.5% | 11.3% | 45.3% | 7.9% | 50 nM | 70 nM | 230 nM | 5% | 50 nM |  | 
CNc1ncnc2c1c(-c1ccco1)cn2[C@@H]1O[C@H](CO)[C@@H](O)[C@H]1O [Compound 3a, 5-(Furan-2-yl)-4-methylamino-7-(β-D-ribofuranosyl)-7H-pyrrolo[2,3-d]pyrimidine] | 42.2% | 12.1% | 45.8% | 10.6% | 2570 nM | 60 nM | > 20000 nM | 1. % | 140 nM |  | 
COc1ncnc2c1c(-c1cccs1)cn2[C@@H]1O[C@H](CO)[C@@H](O)[C@H]1O [Compound 1c, 4-Methoxy-7-(β-D-ribofuranosyl)-5-(thiophen-2-yl)-7H-pyrrolo[2,3-d]pyrimidine] | 41.5% | 9.8% | 48.7% | 7.5% | 4850 nM | 1080 nM | 12100 nM | 0.1% | > 44000 nM | 140 to 143 °C | 
CN(C)c1ncnc2c1c(-c1ccsc1)cn2[C@@H]1O[C@H](CO)[C@@H](O)[C@H]1O [Compound 4d, 4-Dimethylamino-7-(β-D-ribofuranosyl)-5-(thiophen-3-yl)-7H-pyrrolo[2,3-d]pyrimidine] | 41.4% | 11.2% | 47.4% | 6.8% | > 20000 nM | 38400 nM | > 20000 nM | 0.7% | > 44000 nM |  | 
C#Cc1cn([C@@H]2O[C@H](CO)[C@@H](O)[C@H]2O)c2ncnc(N(C)C)c12 [Compound 4g, 4-Dimethylamino-5-ethynyl-7-(β-D-ribofuranosyl)-7H-pyrrolo[2,3-d]pyrimidine] | 38.5% | 14.7% | 46.8% | 8.9% | 390 nM | 70 nM | 240 nM | 8.6% | 100 nM |  | 
CN(C)c1ncnc2c1c(I)cn2[C@@H]1O[C@H](CO)[C@@H](O)[C@H]1O [Compound 4h, 4-Dimethylamino-5-iodo-7-(β-D-ribofuranosyl)-7H-pyrrolo[2,3-d]pyrimidine] | 39.8% | 13.5% | 46.7% | 9.4% | 340 nM | 690 nM | 100 nM | 4.8% | > 44000 nM | 195 to 197 °C | 
